# Read-outs that look alike come from different tables or passages of the source.
# Assays:
# [1] = biological target: T1, ExsA (Pseudomonas aeruginosa, UniProt P26993); assay: Chemiluminescence-based ExsA-DNA binding assay; parameters: species or system P. aeruginosa; details: Table 7, cell-free system; read-out: ExsA EC50
# T1 construct: made in house
# T1 sequence (P26993 1-278): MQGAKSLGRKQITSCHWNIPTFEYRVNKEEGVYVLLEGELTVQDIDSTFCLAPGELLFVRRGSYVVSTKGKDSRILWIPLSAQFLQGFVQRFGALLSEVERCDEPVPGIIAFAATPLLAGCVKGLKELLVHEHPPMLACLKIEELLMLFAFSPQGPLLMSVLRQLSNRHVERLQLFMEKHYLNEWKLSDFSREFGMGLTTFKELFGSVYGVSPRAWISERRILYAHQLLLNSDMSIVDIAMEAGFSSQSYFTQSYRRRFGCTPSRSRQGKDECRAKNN
# [2] = biological target: LcrF (VirF) (Yersinia pestis, UniProt P28808); assay: biochemical; format: binding, Y. pseudotuberculosis
# Sequence of LcrF (VirF) (P28808 whole entry, looked up): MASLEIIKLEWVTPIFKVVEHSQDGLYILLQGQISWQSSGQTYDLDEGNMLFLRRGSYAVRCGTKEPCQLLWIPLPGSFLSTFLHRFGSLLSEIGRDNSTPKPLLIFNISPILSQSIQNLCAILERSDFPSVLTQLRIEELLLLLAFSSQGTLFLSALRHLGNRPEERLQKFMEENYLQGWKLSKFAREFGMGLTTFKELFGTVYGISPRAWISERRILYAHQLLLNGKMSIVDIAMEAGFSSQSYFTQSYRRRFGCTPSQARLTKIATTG
# [3] = test system: Y. pseudotuberculosis; assay: microbe, parasite or virus in culture; details: Yersinia pseudotuberculosis, J774, read-out: % Cytotoxicity
# [4] = test system: P. aeruginosa; assay: P. aeruginosa cytotoxicity whole cell assay (J774 cells, LDH release); details: relative to vehicle treated cells infected with wild type P. aeruginosa
# [5] = read-out: EC50 for inhibition of LcrF(VirF)-DNA binding
# [6] = EC50 for inhibition of LcrF(VirF)-DNA binding
SMILES,EC50 [1] [µM],"EC50 [2, 5] [µM]",activity at 50 µg/mL [3] [%],"EC50 [2, 6] [µM]",Cytotoxicity at 50 μg/mL Pseudomonas [4]
"NC(=O)c1ccc2nc(-c3ccc(NC(=O)c4ccc(F)cc4)cc3)n(O)c2c1 [DO, 2-[4-(4-Fluoro-benzoylamino)-phenyl]-3-hdroxy-3H-benzoimidazole-5-carboxylic acid amide]",> 25,> 25,< 75,,
O=C(Nc1ccc(-c2nc3ccc([N+](=O)[O-])cc3n2O)nc1)c1ccc(F)cc1 [DQ],> 25,,< 75,> 25,
O=C(Nc1ccc(-c2nc3ccc([N+](=O)[O-])cc3n2OCP(=O)(O)O)cc1)c1ccc(F)cc1 [DV],> 25,> 25,< 75,,
"O=C(Nc1ccc(-c2nc3ccc([N+](=O)[O-])cc3n2O)c(OCP(=O)(O)O)c1)c1ccc(F)cc1 [EC, [5-(4-Fluoro-benzoylamino)-2-(1-hydroxy-6-nitro-1H-benzoimidazol-2-yl)-phenoxymethyl]-phosphonic acid]",> 25,> 25,< 75,,
CCOP(=O)(COn1c(-c2ccc(NC(=O)c3ccc(F)cc3)cc2)nc2ccc([N+](=O)[O-])cc21)OCC [EG],> 25,> 25,< 75,,
O=C(Nc1ccc(-c2nc3ccncc3n2O)cc1)c1ccc(F)cc1 [EJ],> 25,> 25,< 75,,
O=C(/C=C/c1ccc(F)cc1)Nc1ccc(-c2nc3ccncc3n2O)cc1 [EK],> 25,> 25,< 75,,
Cc1cc(-c2nc3ccc([N+](=O)[O-])cc3n2O)ccc1NC(=O)/C=C/c1ccc(F)cc1 [EN],> 25,,< 75,10 to 25,
O=C(Nc1ccc(-c2nc3ccc([N+](=O)[O-])cc3n2O)cc1)c1ccc2c(c1)CCCC2=O [EP],> 25,,< 75,> 25,
CN(C)CCN(C)c1cc2nc(-c3ccc(NC(=O)/C=C/c4ccc(F)cc4)cc3)n(O)c2cc1[N+](=O)[O-] [FQ],,,,,"** (reduced P. aeruginosa cytotoxicity below 75% of untreated, wild type levels at 50 mg/mL)"
CN1CCN(CCOc2cc3nc(-c4ccc(NC(=O)/C=C/c5ccc(F)cc5)cc4)n(O)c3cc2[N+](=O)[O-])CC1 [FR],,,,,"* (reduced P. aeruginosa cytotoxicity to 99-75% of untreated, wild type levels at 50 mg/mL)"
CN(C)CCOc1cc2nc(-c3ccc(NC(=O)/C=C/c4ccc(F)cc4)cc3)n(O)c2cc1[N+](=O)[O-] [FS],> 25,,,,"* (reduced P. aeruginosa cytotoxicity to 99-75% of untreated, wild type levels at 50 mg/mL)"
CC(=O)c1ccc(/C=C/C(=O)Nc2ccc(-c3nc4cc(OCCN5CCN(C)CC5)c([N+](=O)[O-])cc4n3O)cc2)cc1 [FU],,,,,"** (reduced P. aeruginosa cytotoxicity below 75% of untreated, wild type levels at 50 mg/mL)"
"CC(=O)c1ccc(C(=O)Nc2ccc(-c3nc4ccc(-n5ccnc5)cc4n3O)cc2)cc1 [FZ, 4-Acetyl-N-[4-(1-hdroxy-6-imidazol-1-yl-1H-benzoimidazol-2-yl)-phenyl]-benzamide]",> 25,,,,"* (reduced P. aeruginosa cytotoxicity to 99-75% of untreated, wild type levels at 50 mg/mL)"
CC(=O)c1ccc(/C=C/C(=O)Nc2ccc(-c3nc4ccc(Br)cc4n3O)cc2)cc1 [GD],< 10,,,,"* (reduced P. aeruginosa cytotoxicity to 99-75% of untreated, wild type levels at 50 mg/mL)"
CC(=O)c1ccc(/C=C/C(=O)Nc2ccc(-c3nc4ccc(C(F)(F)F)cc4n3O)cc2)cc1 [GE],10 to 25,,,,"* (reduced P. aeruginosa cytotoxicity to 99-75% of untreated, wild type levels at 50 mg/mL)"

SMILES,EC50 [1] [µM],"EC50 [2, 5] [µM]",activity at 50 µg/mL [3] [%],"EC50 [2, 6] [µM]",Cytotoxicity at 50 μg/mL Pseudomonas [4]
CC(=O)c1ccc(/C=C/C(=O)Nc2ccc(-c3nc4ccc(S(N)(=O)=O)cc4n3O)cc2)cc1 [GF],10 to 25,,,,"* (reduced P. aeruginosa cytotoxicity to 99-75% of untreated, wild type levels at 50 mg/mL)"
CC(=O)c1ccc(/C=C/C(=O)Nc2ccc(-c3nc4ccccc4n3O)cc2)cc1 [GH],10 to 25,,,,"* (reduced P. aeruginosa cytotoxicity to 99-75% of untreated, wild type levels at 50 mg/mL)"
CC(=O)c1ccc(/C=C/C(=O)Nc2ccc(-c3nc4ccc(C(C)=O)cc4n3O)cc2)cc1 [GI],> 25,,,,"* (reduced P. aeruginosa cytotoxicity to 99-75% of untreated, wild type levels at 50 mg/mL)"
CC(=O)c1ccc(/C=C/C(=O)Nc2ccc(-c3nc4ccc(S(C)(=O)=O)cc4n3O)cc2)cc1 [GK],> 25,,,,"* (reduced P. aeruginosa cytotoxicity to 99-75% of untreated, wild type levels at 50 mg/mL)"
CC(=O)c1ccc(/C=C/C(=O)Nc2ccc(-c3nc4ccc(C(=O)O)cc4n3O)cc2)cc1 [GL],> 25,,,,"** (reduced P. aeruginosa cytotoxicity below 75% of untreated, wild type levels at 50 mg/mL)"
CC(=O)c1ccc(/C=C/C(=O)Nc2ccc(-c3nc4ccc([N+](=O)[O-])cc4n3O)cc2)cn1 [GN],< 10,,,,"** (reduced P. aeruginosa cytotoxicity below 75% of untreated, wild type levels at 50 mg/mL)"
"CC(=O)c1ccc(/C=C/C(=O)N(CC(=O)O)c2ccc(-c3nc4ccc(C#N)cc4n3O)cc2)cc1 [GO, {[(E)-3-(4-Acetyl-phenyl)-acryloyl]-[4-(6-cyano-1-hydroxy-1H-benzoimidazol-2-yl)-phenyl]-amino}-acetic acid]",> 25,,,,"* (reduced P. aeruginosa cytotoxicity to 99-75% of untreated, wild type levels at 50 mg/mL)"
"CC(=O)c1ccc(/C=C/C(=O)N(CC(N)=O)c2ccc(-c3nc4ccc([N+](=O)[O-])cc4n3O)cc2)cc1 [GP, (E)-3-(4-Acetyl-phenyl)-N-carbamoylmethyl-N-[4-(1-hydroxy-6-nitro-1H-benzoimidazol-2-yl)-phenyl]-acrylamide]",> 25,,,,"* (reduced P. aeruginosa cytotoxicity to 99-75% of untreated, wild type levels at 50 mg/mL)"
CC(=O)c1ccc(/C=C/C(=O)N(CC(N)=O)c2ccc(-c3nc4ccc(C#N)cc4n3O)cc2)cc1 [GQ],> 25,,,,"* (reduced P. aeruginosa cytotoxicity to 99-75% of untreated, wild type levels at 50 mg/mL)"
CC(=O)c1ccc(/C=C/C(=O)Nc2ccc(-c3nc4ccc(F)cc4n3O)cc2)cc1 [GR],10 to 25,,,,"* (reduced P. aeruginosa cytotoxicity to 99-75% of untreated, wild type levels at 50 mg/mL)"
O=C(/C=C/c1ccccc1)Nc1ccc(-c2nc3ccc([N+](=O)O)cc3n2O)cc1 [J],< 10,,< 75,< 10,
O=C(Nc1ccc(-c2nc3ccc([N+](=O)[O-])cc3n2O)cc1)c1ccc(-n2cncn2)cc1 [K],< 10,,< 75,10 to 25,
COc1ccc(/C=C/C(=O)Nc2ccc(-c3nc4ccc([N+](=O)[O-])cc4n3O)cc2)cc1 [T],< 10,,< 75,< 10,
O=C(/C=C/c1ccc(F)c(F)c1)Nc1ccc(-c2nc3ccc([N+](=O)[O-])cc3n2O)cc1 [W],10 to 25,,< 75,10 to 25,
N#Cc1ccc(/C=C/C(=O)Nc2ccc(-c3nc4ccc([N+](=O)[O-])cc4n3O)cc2)cc1 [X],< 10,,< 75,10 to 25,

# Reference: patent US20090131481A1, “Transcription Factor Modulating Compounds and Methods of Use Thereof” (Paratek Pharmaceuticals, Inc., published 2009)
